Measured values: PubChem BioAssay AID2060622 (Molecular Pharmacology Branch, DTP, NCI, 2025)

Test system: 242566-281-R-J2-PDC complex spheroid viability
Experiment: Anticancer human tumor 242566-281-R-J2-PDC patient-derived pancreatic carcinoma cell line growth inhibition [CLK]
Conditions: for IC50: curve of first compound; for viability, T/C: stronger effect = lower value
Outline: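 Multi-cell-type spheroids combined patient-derived tumor cells with HUVEC endothelial cells and human mesenchymal stem cells. Paired agents were dosed in half-log steps down from about clinical Cmax, or from 10 microM where Cmax was unknown.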

[1] = second compound 0.0316 µM, first compound 0.0316 µM
[2] = second compound 0.0316 µM, first compound 0.1 µM
[3] = second compound 0.1 µM, first compound 0.0316 µM
[4] = second compound 0.1 µM, first compound 0.1 µM
[5] = second compound 0.316 µM, first compound 0.0316 µM
[6] = second compound 0.316 µM, first compound 0.1 µM
[7] = second compound 1 µM, first compound 0.0316 µM
[8] = second compound 1 µM, first compound 0.1 µM
[9] = second compound 3.16 µM, first compound 0.0316 µM
[10] = second compound 3.16 µM, first compound 0.1 µM
[11] = second compound 10 µM, first compound 0.0316 µM
[12] = second compound 10 µM, first compound 0.1 µM
[13] = second compound 0.0316 µM, first compound 0.316 µM
[14] = second compound 0.0316 µM, first compound 1 µM
[15] = second compound 0.0316 µM, first compound 3.16 µM
[16] = second compound 0.0316 µM, first compound 10 µM
[17] = second compound 0.1 µM, first compound 0.316 µM
[18] = second compound 0.1 µM, first compound 1 µM
[19] = second compound 0.1 µM, first compound 3.16 µM
[20] = second compound 0.1 µM, first compound 10 µM
[21] = second compound 0.316 µM, first compound 0.316 µM
[22] = second compound 0.316 µM, first compound 1 µM
[23] = second compound 0.316 µM, first compound 3.16 µM
[24] = second compound 0.316 µM, first compound 10 µM
[25] = second compound 1 µM, first compound 0.316 µM
[26] = second compound 1 µM, first compound 1 µM
[27] = second compound 1 µM, first compound 3.16 µM
[28] = second compound 1 µM, first compound 10 µM
[29] = second compound 3.16 µM, first compound 0.316 µM
[30] = second compound 3.16 µM, first compound 1 µM
[31] = second compound 3.16 µM, first compound 3.16 µM
[32] = second compound 3.16 µM, first compound 10 µM
[33] = second compound 10 µM, first compound 0.316 µM
[34] = second compound 10 µM, first compound 1 µM
[35] = second compound 10 µM, first compound 3.16 µM
[36] = second compound 10 µM, first compound 10 µM
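Also: spheroids exposed to compounds for 7 days before readout.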
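For viability, T/C in this document: 100% = DMSO vehicle control wells.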

In the case of `Cn1ncnc1[C@H]1c2n[nH]c(=O)c3cc(F)cc(c23)N[C@@H]1c1ccc(F)cc1` + CNC(=O)c1ccc(Nc2nc(OC3CCCC3)c3c(-c4ccc5nc(C)oc5c4)c[nH]c3n2)c(OC)c1, the IC50 (second compound 0.0316 µM) is reported as > 100 nM, the IC50 (second compound 0.1 µM) is reported as > 100 nM and the IC50 (second compound 0.316 µM) is reported as > 100 nM. The IC50 (second compound 1 µM) was > 100 nM, the IC50 (second compound 3.16 µM) was 31.1 nM and the IC50 (second compound 10 µM) was 2.02 nM. It also gave a viability, T/C (second compound 0.0316 µM, first compound 0.000316 µM) of 126%, a viability, T/C (second compound 0.0316 µM, first compound 0.001 µM) of 105% and a viability, T/C (second compound 0.0316 µM, first compound 0.00316 µM) of 104%. The viability, T/C (second compound 0.0316 µM, first compound 0.01 µM) was 127%, the viability, T/C [1] was 91.8% and the viability, T/C [2] was 98.8%. The viability, T/C (second compound 0.1 µM, first compound 0.000316 µM) was 100%, the viability, T/C (second compound 0.1 µM, first compound 0.001 µM) was 123% and the viability, T/C (second compound 0.1 µM, first compound 0.00316 µM) was 84.1%. It also gave a viability, T/C (second compound 0.1 µM, first compound 0.01 µM) of 92.3%, a viability, T/C [3] of 98.5% and a viability, T/C [4] of 87.8%. The viability, T/C (second compound 0.316 µM, first compound 0.000316 µM) was 104%, the viability, T/C (second compound 0.316 µM, first compound 0.001 µM) was 86.3% and the viability, T/C (second compound 0.316 µM, first compound 0.00316 µM) was 85.1%. The viability, T/C (second compound 0.316 µM, first compound 0.01 µM) was 89.9%, the viability, T/C [5] was 79.9% and the viability, T/C [6] was 76.5%. The viability, T/C (second compound 1 µM, first compound 0.000316 µM) was 70.9%, the viability, T/C (second compound 1 µM, first compound 0.001 µM) was 67.2% and the viability, T/C (second compound 1 µM, first compound 0.00316 µM) was 62.5%. The viability, T/C (second compound 1 µM, first compound 0.01 µM) was 64.8%, the viability, T/C [7] was 56.1% and the viability, T/C [8] was 52.4%. The viability, T/C (second compound 3.16 µM, first compound 0.000316 µM) was 55.5%, the viability, T/C (second compound 3.16 µM, first compound 0.001 µM) was 52% and the viability, T/C (second compound 3.16 µM, first compound 0.00316 µM) was 49.6%. It also gave a viability, T/C (second compound 3.16 µM, first compound 0.01 µM) of 47.6%, a viability, T/C [9] of 56.2% and a viability, T/C [10] of 47%. The viability, T/C (second compound 10 µM, first compound 0.000316 µM) was 50.2%, the viability, T/C (second compound 10 µM, first compound 0.001 µM) was 53.8% and the viability, T/C (second compound 10 µM, first compound 0.00316 µM) was 45.2%. For the same molecule, the viability, T/C (second compound 10 µM, first compound 0.01 µM) was 49.8%, the viability, T/C [11] was 50.3% and the viability, T/C [12] was 49.1%.
Work on `Nc1ccn(C2OC(CO)C(O)C2(F)F)c(=O)n1` (stereo unspecified) + CNC(=O)c1ccc(Nc2nc(OC3CCCC3)c3c(-c4ccc5nc(C)oc5c4)c[nH]c3n2)c(OC)c1 yielded an IC50 (second compound 0.0316 µM) of 84.9 nM, an IC50 (second compound 0.1 µM) of 115 nM and an IC50 (second compound 0.316 µM) of 77.1 nM. For the same molecule, the IC50 (second compound 1 µM) was 56.7 nM, the IC50 (second compound 3.16 µM) was 32.1 nM and the IC50 (second compound 10 µM) was < 31.6 nM. The viability, T/C [1] was 91.5%, the viability, T/C [2] was 42.9% and the viability, T/C [13] was 21.2%. The viability, T/C [14] was 12.3%, the viability, T/C [15] was 9.35% and the viability, T/C [16] was 9.34%. For the same molecule, the viability, T/C [3] was 91.1%, the viability, T/C [4] was 53.3% and the viability, T/C [17] was 26.7%. The viability, T/C [18] was 15.5%, the viability, T/C [19] was 12.8% and the viability, T/C [20] was 10%. For the same molecule, the viability, T/C [5] was 78%, the viability, T/C [6] was 40.5% and the viability, T/C [21] was 25.7%. It also gave a viability, T/C [22] of 14.8%, a viability, T/C [23] of 12.8% and a viability, T/C [24] of 8.22%. It also gave a viability, T/C [7] of 62.8%, a viability, T/C [8] of 37.8% and a viability, T/C [25] of 19.3%. It also gave a viability, T/C [26] of 11.9%, a viability, T/C [27] of 9.22% and a viability, T/C [28] of 6.78%. The viability, T/C [9] was 50.1%, the viability, T/C [10] was 36.2% and the viability, T/C [29] was 16.3%. The viability, T/C [30] was 10.7%, the viability, T/C [31] was 7.99% and the viability, T/C [32] was 6.76%. For the same molecule, the viability, T/C [11] was 45.8%, the viability, T/C [12] was 34.7% and the viability, T/C [33] was 19.7%. It also gave a viability, T/C [34] of 9.76%, a viability, T/C [35] of 8.5% and a viability, T/C [36] of 7.44%.
`O=c1[nH]cc(F)c(=O)[nH]1` + CNC(=O)c1ccc(Nc2nc(OC3CCCC3)c3c(-c4ccc5nc(C)oc5c4)c[nH]c3n2)c(OC)c1 was tested, and the IC50 (second compound 0.0316 µM) was > 10000 nM, the IC50 (second compound 0.1 µM) was > 10000 nM and the IC50 (second compound 0.316 µM) was 5150 nM. The IC50 (second compound 1 µM) was 1940 nM, the IC50 (second compound 3.16 µM) was 77.6 nM and the IC50 (second compound 10 µM) was < 31.6 nM. For the same molecule, the viability, T/C [1] was 108%, the viability, T/C [2] was 116% and the viability, T/C [13] was 83.9%. For the same molecule, the viability, T/C [14] was 91.4%, the viability, T/C [15] was 66.5% and the viability, T/C [16] was 53.5%. For the same molecule, the viability, T/C [3] was 96%, the viability, T/C [4] was 96.5% and the viability, T/C [17] was 86.4%. The viability, T/C [18] was 71.7%, the viability, T/C [19] was 63.9% and the viability, T/C [20] was 52.2%. It also gave a viability, T/C [5] of 86.1%, a viability, T/C [6] of 66.9% and a viability, T/C [21] of 67.6%. The viability, T/C [22] was 74%, the viability, T/C [23] was 53.9% and the viability, T/C [24] was 41.3%. It also gave a viability, T/C [7] of 67%, a viability, T/C [8] of 61.2% and a viability, T/C [25] of 62.6%. For the same molecule, the viability, T/C [26] was 56.9%, the viability, T/C [27] was 45% and the viability, T/C [28] was 25.5%. The viability, T/C [9] was 51.9%, the viability, T/C [10] was 50.7% and the viability, T/C [29] was 44.7%. The viability, T/C [30] was 46.2%, the viability, T/C [31] was 38.2% and the viability, T/C [32] was 22.5%. It also gave a viability, T/C [11] of 48%, a viability, T/C [12] of 50.2% and a viability, T/C [33] of 47.3%. The viability, T/C [34] was 44.2%, the viability, T/C [35] was 34.2% and the viability, T/C [36] was 23.2%.
